Experimental data from PMC10804683, “Identification of the pyridoxal 5′‐phosphate allosteric site in human pyridox(am)ine 5′‐phosphate oxidase” (Protein Science : A Publication of the Protein Society, 2024).
Where a chain is given by its changes, count along the chain named. Entries after “also recorded” stand apart in the source; their conditions may differ.

How the values were obtained:
[1] = molecular target: human PNPO wild type (holo-enzyme); design: method as in Barile et al. ([2020]); details: FMN fluorescence changes, ref Barile et al. ([2020]), read-out: PLP binding KD^FLUO; cited from earlier work
human PNPO wild type = molecular target: T1, human PNPO wild type (Homo sapiens, UniProt Q9NVS9); design: a main form corresponding to the entire protein; made in house; host or cells: E. coli BL21(DE3); method as in Barile et al. ([2020]); details: DSF, ref Barile et al. ([2020]), read-out: PLP binding KD^DSF; cited from earlier work
T1 sequence (Q9NVS9 1-261): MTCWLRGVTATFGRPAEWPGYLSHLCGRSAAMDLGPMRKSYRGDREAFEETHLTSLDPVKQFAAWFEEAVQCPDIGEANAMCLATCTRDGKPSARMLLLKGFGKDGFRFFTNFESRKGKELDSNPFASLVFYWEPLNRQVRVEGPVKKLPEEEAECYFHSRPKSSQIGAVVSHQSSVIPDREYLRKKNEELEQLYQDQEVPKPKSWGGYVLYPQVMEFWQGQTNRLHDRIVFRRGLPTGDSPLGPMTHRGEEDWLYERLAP

[2] = molecular target: T2, human PNPO F48A/E50L/H248N/R258L variant (holo-enzyme) (Homo sapiens, UniProt Q9NVS9, E50L/F48A/H248N/R258L); test: PLP binding by FMN fluorescence changes, holo quadruple variant; details: 100 nM enzyme, read-out: PLP binding KD^FLUO
T2 construct: a main form corresponding to the entire protein; made in house; host or cells: E. coli BL21(DE3)
T2 sequence (Q9NVS9 1-261 F48A/E50L/H248N/R258L): T1 sequence (Q9NVS9 1-261) with F48A, E50L, H248N, R258L
Source text: (§1) PLP binding to PNPO can be detected and quantitatively measured using differential scanning fluorimetry (DSF) and also by measuring FMN fluorescence changes. We had previously attributed DSF changes to PLP binding at the active site, while FMN fluorescence changes were attributed to PLP binding at the allosteric site (Barile et al., [2019], [2020]). Previous experiments carried out with the PNPO R161C variant, affecting a residue that is essential for substrate binding and catalysis (and therefore also for PLP binding at the active site), confirms that DSF measurements only report PLP binding at the active site (Barile et al., [2021]; Table 1). […] We expected to observe no FMN fluorescence changes upon titration of the variants with PLP. However, this was not the case, and the dissociation constant values obtained by observing the FMN fluorescence emission were only up to threefold larger in the variants with respect to wild type PNPO (Figure 3). […] To check the second possibility, we measured intrinsic fluorescence changes of wild type and variant apo‐forms (i.e., without FMN) upon PLP titration. […]
(§2) Analyses of PLP binding, based on FMN fluorescence increase observed upon binding of PLP to PNPO, were performed as described in Barile et al. ([2020]). […] Emission spectra were recorded from […], with excitation and emission slits set at 3 and 5 nm, respectively. […]

[3] = molecular target: human PNPO R161C variant (holo-enzyme); design: method as in Barile et al. ([2021]); details: FMN fluorescence changes, ref Barile et al. ([2021]), read-out: PLP binding KD^FLUO; cited from earlier work
[4] = molecular target: T3, apo-PNPO F48A/E50L/H248N/R258L (Homo sapiens, UniProt Q9NVS9, E50L/F48A/H248N/R258L); test: PLP binding by intrinsic fluorescence, apo quadruple variant; details: excitation 280 nm, 100 nM enzyme
T3 construct: a main form corresponding to the entire protein; made in house; host or cells: E. coli BL21(DE3)
T3 sequence (Q9NVS9 1-261 F48A/E50L/H248N/R258L): T1 sequence (Q9NVS9 1-261) with F48A, E50L, H248N, R258L
Source text: as §1, §2

- Kd [2]: 2850 ± 250 nM
SMILES: Cc1ncc(COP(=O)(O)O)c(C=O)c1O [PLP, pyridoxal 5′‐phosphate]
- Kd [1]: 950 ± 10 nM
- Kd (human PNPO wild type): 3200 ± 200 nM
- Kd [3]: 530 ± 80 nM
- Apo-enzyme PLP binding KD^FLUO [4]: no change in fluorescence was observed; also recorded: No binding
